Laboratory results as given in US20220289708A1, “SUBSTITUTED N-PHENYL URACILS, SALTS THEREOF AND THEIR USE AS HERBICIDAL AGENTS” (Bayer Aktiengesellschaft, priority 2019, published 2022).
One block for each compound: values may come before it.

What was measured:
Assay type in all cases: in vivo
Oryza sativa = experiment: Post-emergence crop plant compatibility
Procedure, shortened: (§1)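 Greenhouse crop plants in sandy loam sprayed at one-leaf stage (2-3 weeks after sowing) with WP or EC formulations plus 0.5% additive, 600 l/ha water, at 5 g/ha or 20 g/ha. Damage scored visually after about 3 weeks as % versus untreated controls (100% = plants dead).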

Triticum aestivum = experiment: Post-emergence crop plant compatibility; conditions: application rate 20 g/ha
Procedure, shortened: as §1

Setaria viridis = experiment: Post-emergence herbicidal action; conditions: rated visually after about 3 weeks vs untreated controls
Procedure, shortened: (§2)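 Percent activity, judged by eye about 3 weeks after treatment relative to untreated plants, ranges from 0% (as control) to 100% (plants dead). Foliar application at 20 g/ha and less was made at the one-leaf stage using a 600 l/ha aqueous spray containing 0.5% additive.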

Polygonum convolvulus = experiment: Post-emergence herbicidal action
Procedure, shortened: as §2

Viola tricolor = experiment: Post-emergence herbicidal action
Procedure, shortened: as §2

Stellaria media = experiment: Post-emergence herbicidal action; conditions: application rate 5 g/ha, rated visually after about 3 weeks vs untreated controls
Procedure, shortened: as §2

Digitaria sanguinalis = experiment: Post-emergence herbicidal action; conditions: rated visually after about 3 weeks vs untreated controls
Procedure, shortened: as §2

Hordeum murinum = experiment: Post-emergence herbicidal action; conditions: application rate 20 g/ha
Procedure, shortened: as §2

Echinochloa crus-galli = experiment: Post-emergence herbicidal action; conditions: rated visually after about 3 weeks vs untreated controls
Procedure, shortened: as §2

Alopecurus myosuroides = experiment: Post-emergence herbicidal action; conditions: application rate 20 g/ha, rated visually after about 3 weeks vs untreated controls
Procedure, shortened: as §2

Matricaria inodora = experiment: Post-emergence herbicidal action; conditions: application rate 20 g/ha, rated visually after about 3 weeks vs untreated controls
Procedure, shortened: as §2

Lolium rigidum = experiment: Post-emergence herbicidal action; conditions: application rate 20 g/ha, rated visually after about 3 weeks vs untreated controls
Procedure, shortened: as §2

Pharbitis purpurea = experiment: Post-emergence herbicidal action; conditions: rated visually after about 3 weeks vs untreated controls
Procedure, shortened: as §2

Amaranthus retroflexus = experiment: Post-emergence herbicidal action; conditions: rated visually after about 3 weeks vs untreated controls
Procedure, shortened: as §2

Veronica persica = experiment: Post-emergence herbicidal action; conditions: application rate 20 g/ha
Procedure, shortened: as §2

Abutilon theophrasti = experiment: Post-emergence herbicidal action; conditions: rated visually after about 3 weeks vs untreated controls
Procedure, shortened: as §2

Zea mays = experiment: Post-emergence crop plant compatibility
Procedure, shortened: as §1

Avena fatua = experiment: Post-emergence herbicidal action; conditions: application rate 20 g/ha, rated visually after about 3 weeks vs untreated controls
Procedure, shortened: as §2

Oryza sativa (efficacy in %) (Oryza sativa; application rate 5 g/ha): 20% | Triticum aestivum (efficacy in %) (Triticum aestivum): 20%
SMILES: Cn1c(C(F)(F)F)cc(=O)n(-c2cc(Sc3cccnc3SCC(=O)OCC3CCOC3)c(Cl)cc2F)c1=O (stereo not drawn) [I.10-72]
Setaria viridis (efficacy in %) (Setaria viridis; application rate 5 g/ha): 90% | Polygonum convolvulus (efficacy in %) (Polygonum convolvulus; application rate 5 g/ha): 100% | Viola tricolor (efficacy in %) (Viola tricolor; application rate 5 g/ha): 100% | Stellaria media (efficacy in %) (Stellaria media): 90% | Digitaria sanguinalis (efficacy in %) (Digitaria sanguinalis; application rate 5 g/ha): 80% | Hordeum murinum (efficacy in %) (Hordeum murinum): 80% | Echinochloa crus-galli (efficacy in %) (Echinochloa crus-galli; application rate 5 g/ha): 100% | Alopecurus myosuroides (efficacy in %) (Alopecurus myosuroides): 80% | Matricaria inodora (efficacy in %) (Matricaria inodora): 100% | Lolium rigidum (efficacy in %) (Lolium rigidum): 80% | Pharbitis purpurea (efficacy in %) (Pharbitis purpurea; application rate 5 g/ha): 100% | Amaranthus retroflexus (efficacy in %) (Amaranthus retroflexus; application rate 5 g/ha): 100% | Veronica persica (efficacy in %) (Veronica persica): 80% | Abutilon theophrasti (efficacy in %) (Abutilon theophrasti; application rate 5 g/ha): 100%

Zea mays (efficacy in %) (Zea mays; application rate 5 g/ha): 20% | Oryza sativa (efficacy in %) (Oryza sativa; application rate 20 g/ha): 10%
SMILES: CCOCCOC(=O)COc1ncccc1Oc1cc(-n2c(=O)cc(C(F)(F)F)n(C)c2=O)c(F)cc1[N+](=O)[O-] [I.14-2]
Setaria viridis (efficacy in %) (Setaria viridis; application rate 20 g/ha): 100% | Viola tricolor (efficacy in %) (Viola tricolor; application rate 20 g/ha): 100% | Avena fatua (efficacy in %) (Avena fatua): 100% | Digitaria sanguinalis (efficacy in %) (Digitaria sanguinalis; application rate 20 g/ha): 100% | Echinochloa crus-galli (efficacy in %) (Echinochloa crus-galli; application rate 20 g/ha): 100% | Alopecurus myosuroides (efficacy in %) (Alopecurus myosuroides): 100% | Matricaria inodora (efficacy in %) (Matricaria inodora): 100% | Lolium rigidum (efficacy in %) (Lolium rigidum): 90% | Pharbitis purpurea (efficacy in %) (Pharbitis purpurea; application rate 20 g/ha): 100% | Amaranthus retroflexus (efficacy in %) (Amaranthus retroflexus; application rate 20 g/ha): 100% | Veronica persica (efficacy in %) (Veronica persica): 100% | Abutilon theophrasti (efficacy in %) (Abutilon theophrasti; application rate 20 g/ha): 100%

Zea mays (efficacy in %) (Zea mays; application rate 20 g/ha): 10% | Oryza sativa (efficacy in %) (Oryza sativa; application rate 20 g/ha): 10%
SMILES: COCCOCCOC(=O)COc1ncccc1Oc1cc(-n2c(=O)cc(C(F)(F)F)n(C)c2=O)c(F)cc1[N+](=O)[O-] [I.14-23]
Setaria viridis (efficacy in %) (Setaria viridis; application rate 20 g/ha): 100% | Polygonum convolvulus (efficacy in %) (Polygonum convolvulus; application rate 20 g/ha): 100% | Viola tricolor (efficacy in %) (Viola tricolor; application rate 20 g/ha): 100% | Digitaria sanguinalis (efficacy in %) (Digitaria sanguinalis; application rate 20 g/ha): 100% | Echinochloa crus-galli (efficacy in %) (Echinochloa crus-galli; application rate 20 g/ha): 100% | Matricaria inodora (efficacy in %) (Matricaria inodora): 100% | Pharbitis purpurea (efficacy in %) (Pharbitis purpurea; application rate 20 g/ha): 100% | Amaranthus retroflexus (efficacy in %) (Amaranthus retroflexus; application rate 20 g/ha): 100% | Veronica persica (efficacy in %) (Veronica persica): 100% | Abutilon theophrasti (efficacy in %) (Abutilon theophrasti; application rate 20 g/ha): 100%
